Test results published in patent US20240398828A1, “HETERO-ATOM CONTAINING COMPOUNDS AND USES THEREOF” (Kumquat Biosciences Inc., priority 2021, published 2024).
pIC50: −log10 of the molar value.

Key:
PTPN1 (i.e., PTP1B) = target: T1, PTPN1 (i.e., PTP1B) (Homo sapiens, UniProt P18031); test: Phosphatase activity assay (DiFMUP substrate), PTP1B; type: biochemical; conditions: compounds binned ≤1 uM or >1 uM
T1 sequence (P18031 1-435): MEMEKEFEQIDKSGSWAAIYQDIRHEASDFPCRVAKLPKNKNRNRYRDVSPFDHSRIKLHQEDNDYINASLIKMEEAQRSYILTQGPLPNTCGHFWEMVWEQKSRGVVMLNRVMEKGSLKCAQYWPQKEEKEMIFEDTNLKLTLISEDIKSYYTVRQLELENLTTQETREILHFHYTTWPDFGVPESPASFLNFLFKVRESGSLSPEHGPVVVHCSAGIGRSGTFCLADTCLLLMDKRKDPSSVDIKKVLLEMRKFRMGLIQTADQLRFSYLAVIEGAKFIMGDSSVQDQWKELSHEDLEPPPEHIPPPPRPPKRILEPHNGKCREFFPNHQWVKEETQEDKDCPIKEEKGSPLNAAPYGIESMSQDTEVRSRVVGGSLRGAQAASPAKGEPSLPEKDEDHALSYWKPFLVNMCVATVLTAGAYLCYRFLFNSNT
Outline: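 Continuous fluorogenic readout of DiFMUP dephosphorylation at room temperature, substrate set at Km for each phosphatase (about 45 μM in the PTPN2 assay). The buffer contains 1 mM DTT and 0.001% Tween-20, pH 7.5.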

PTPN2 (i.e., TC-PTP) = target: T2, PTPN2 (i.e., TC-PTP) (Homo sapiens, UniProt P17706); test: Phosphatase activity assay (DiFMUP substrate), PTPN2; type: biochemical; conditions: compounds binned ≤1 uM or >1 uM
T2 sequence (P17706 1-415): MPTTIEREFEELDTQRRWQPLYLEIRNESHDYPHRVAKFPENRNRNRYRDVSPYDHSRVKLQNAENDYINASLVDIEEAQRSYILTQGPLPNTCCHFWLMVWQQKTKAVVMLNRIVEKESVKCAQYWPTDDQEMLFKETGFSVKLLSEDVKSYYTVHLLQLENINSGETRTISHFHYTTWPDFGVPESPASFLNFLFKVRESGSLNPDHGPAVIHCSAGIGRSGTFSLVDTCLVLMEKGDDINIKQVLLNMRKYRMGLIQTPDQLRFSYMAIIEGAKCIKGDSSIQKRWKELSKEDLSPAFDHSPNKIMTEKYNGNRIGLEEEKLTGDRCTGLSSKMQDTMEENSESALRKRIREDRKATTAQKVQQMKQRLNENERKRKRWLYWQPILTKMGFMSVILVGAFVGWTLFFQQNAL
Outline: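 RT, HEPES pH 7.5 buffer with DTT/Tween-20. 10-point inhibitor series premixed ~2 min with enzyme (PTPN2 0.025 ng/ul). Start with DiFMUP at enzyme Km (~45 μM for PTPN2). Read DiFMU ex360/em450 continuously 15–30 min; initial rate vs concentration, 4-parameter fit → IC50.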

pIC50 (PTPN1 (i.e., PTP1B))	pIC50 (PTPN2 (i.e., TC-PTP))	SMILES
≥ 6.00	≥ 6.00	O=C1CN(c2c(O)ccc(C3=CCCNC3)c2F)S(=O)(=O)N1 [Compound 511, 5-(2-fluoro-6-hydroxy-3-(1,2,5,6-tetrahydropyridin-3-yl)phenyl)-1,2,5-thiadiazolidin-3-one 1,1-dioxide]
≥ 6.00	≥ 6.00	O=C1CN(c2c(O)ccc(-c3cc(CCC4CCCCC4)n[nH]3)c2F)S(=O)(=O)N1 [Compound 455, 5-(3-(3-(2-cyclohexylethyl)-1H-pyrazol-5-yl)-2-fluoro-6-hydroxyphenyl)-1,2,5-thiadiazolidin-3-one 1,1-dioxide]
≥ 6.00	≥ 6.00	Cn1cnc(-c2ccc(O)c(N3CC(=O)NS3(=O)=O)c2F)c1 [Compound 115]
≥ 6.00	≥ 6.00	O=C1CN(c2c(O)ccc(-c3cnn(Cc4cc(F)cc(F)c4)c3)c2F)S(=O)(=O)N1 [Compound 113, 5-(3-(1-(3,5-difluorobenzyl)-1H-pyrazol-4-yl)-2-fluoro-6-hydroxyphenyl)-1,2,5-thiadiazolidin-3-one 1,1-dioxide]
≥ 6.00	≥ 6.00	N#CCCn1cc(-c2ccc(O)c(N3CC(=O)NS3(=O)=O)c2F)cn1 [Compound 204, 3-(4-(3-(1,1-dioxido-4-oxo-1,2,5-thiadiazolidin-2-yl)-2-fluoro-4-hydroxyphenyl)-1H-pyrazol-1-yl)propanenitrile]
≥ 6.00	≥ 6.00	O=C1CN(c2c(O)ccc(-c3[nH]nc(C4CC4)c3F)c2F)S(=O)(=O)N1 [Compound 314, 5-(3-(3-cyclopropyl-4-fluoro-1H-pyrazol-5-yl)-2-fluoro-6-hydroxyphenyl)-1,2,5-thiadiazolidin-3-one 1,1-dioxide]
≥ 6.00	≥ 6.00	O=C1CN(c2c(O)ccc(-c3cn(C4CCC4)cn3)c2F)S(=O)(=O)N1 [Compound 241, 5-(3-(1-cyclobutyl-1H-imidazol-4-yl)-2-fluoro-6-hydroxyphenyl)-1,2,5-thiadiazolidin-3-one 1,1-dioxide]
≥ 6.00	≥ 6.00	NC(=O)C1(c2cc(-c3ccc(O)c(N4CC(=O)NS4(=O)=O)c3F)[nH]n2)CC1 [Compound 517, 1-(5-(3-(1,1-dioxido-4-oxo-1,2,5-thiadiazolidin-2-yl)-2-fluoro-4-hydroxyphenyl)-1H-pyrazol-3-yl)cyclopropane-1-carboxamide]
≥ 6.00	≥ 6.00	CC(C)CCS(=O)(=O)N1CC=C(c2ccc(O)c(N3CC(=O)NS3(=O)=O)c2F)C1 [Compound 338, 5-(2-fluoro-6-hydroxy-3-(1-(isopentylsulfonyl)-2,5-dihydro-1H-pyrrol-3-yl)phenyl)-1,2,5-thiadiazolidin-3-one 1,1-dioxide]
≥ 6.00	≥ 6.00	Cn1ncc2cc(-c3ccc(O)c(N4CC(=O)NS4(=O)=O)c3F)ccc21 [Compound 112, 5-(2-fluoro-6-hydroxy-3-(1-methyl-1H-indazol-5-yl)phenyl)-1,2,5-thiadiazolidin-3-one 1,1-dioxide]
≥ 6.00	≥ 6.00	O=C1CN(c2c(O)ccc(C3=CCN(S(=O)(=O)C4CC4)CC3)c2F)S(=O)(=O)N1 [Compound 355, 5-(3-(1-(cyclopropylsulfonyl)-1,2,3,6-tetrahydropyridin-4-yl)-2-fluoro-6-hydroxyphenyl)-1,2,5-thiadiazolidin-3-one 1,1-dioxide]
≥ 6.00	≥ 6.00	O=C1CN(c2c(O)ccc(-c3cc(C(F)(F)F)n[nH]3)c2F)S(=O)(=O)N1 [Compound 247, 5-(2-fluoro-6-hydroxy-3-(3-(trifluoromethyl)-1H-pyrazol-5-yl)phenyl)-1,2,5-thiadiazolidin-3-one 1,1-dioxide]
≥ 6.00	≥ 6.00	O=C1CN(c2c(O)ccc(-c3cc(CCC4CCC4)n[nH]3)c2F)S(=O)(=O)N1 [Compound 339, 5-(3-(3-(2-cyclobutylethyl)-1H-pyrazol-5-yl)-2-fluoro-6-hydroxyphenyl)-1,2,5-thiadiazolidin-3-one 1,1-dioxide]
≥ 6.00	≥ 6.00	O=C1CN(c2c(O)ccc(-c3cc(C(=O)N4CCC4)n[nH]3)c2F)S(=O)(=O)N1 [Compound 230, 5-(3-(3-(azetidine-1-carbonyl)-1H-pyrazol-5-yl)-2-fluoro-6-hydroxyphenyl)-1,2,5-thiadiazolidin-3-one 1,1-dioxide]
≥ 6.00	≥ 6.00	O=C1CN(c2c(O)ccc(C3=CCNC3)c2F)S(=O)(=O)N1 [Compound 489, 5-(3-(2,5-dihydro-1H-pyrrol-3-yl)-2-fluoro-6-hydroxyphenyl)-1,2,5-thiadiazolidin-3-one 1,1-dioxide]
≥ 6.00	≥ 6.00	COCC1CCCN1c1cc(-c2ccc(O)c(N3CC(=O)NS3(=O)=O)c2F)[nH]n1 (stereo not drawn) [Compound 372, 5-(2-fluoro-6-hydroxy-3-(3-(2-(methoxymethyl)pyrrolidin-1-yl)-1H-pyrazol-5-yl)phenyl)-1,2,5-thiadiazolidin-3-one 1,1-dioxide]
≥ 6.00	≥ 6.00	O=C1CN(c2c(O)ccc(C3CCN(S(=O)(=O)C4CC4)CC3)c2F)S(=O)(=O)N1 [Compound 285, 5-(3-(1-(cyclopropylsulfonyl)piperidin-4-yl)-2-fluoro-6-hydroxyphenyl)-1,2,5-thiadiazolidin-3-one 1,1-dioxide]
≥ 6.00	≥ 6.00	O=C1CN(c2c(O)ccc(-c3ccc(NS(=O)(=O)CC4CC4)cc3)c2F)S(=O)(=O)N1 [Compound 231, 1-cyclopropyl-N-(3′-(1,1-dioxido-4-oxo-1,2,5-thiadiazolidin-2-yl)-2′-fluoro-4′-hydroxy-[1,1′-biphenyl]-4-yl)methanesulfonamide]
≥ 6.00	≥ 6.00	CC1C(=O)NS(=O)(=O)N1c1c(O)ccc(-c2cnn(Cc3cccc(F)c3)c2)c1F (stereo not drawn) [Compound 155, 5-(2-fluoro-3-(1-(3-fluorobenzyl)-1H-pyrazol-4-yl)-6-hydroxyphenyl)-4-methyl-1,2,5-thiadiazolidin-3-one 1,1-dioxide]
≥ 6.00	≥ 6.00	O=C1CN(c2c(O)ccc(-c3cnc(C4CC4)o3)c2F)S(=O)(=O)N1 [Compound 249, 5-(3-(2-cyclopropyloxazol-5-yl)-2-fluoro-6-hydroxyphenyl)-1,2,5-thiadiazolidin-3-one 1,1-dioxide]
≥ 6.00	< 6.00	O=C1CN(c2c(O)ccc(C3=CC4CCC3N4)c2F)S(=O)(=O)N1 (stereo not drawn) [Compound 475, 5-(3-(7-azabicyclo[2.2.1]hept-2-en-2-yl)-2-fluoro-6-hydroxyphenyl)-1,2,5-thiadiazolidin-3-one 1,1-dioxide]
≥ 6.00	< 6.00	O=C1CN(c2c(O)ccc(-c3ccnc(-c4ccccc4)c3)c2F)S(=O)(=O)N1 [Compound 136, 5-(2-fluoro-6-hydroxy-3-(2-phenylpyridin-4-yl)phenyl)-1,2,5-thiadiazolidin-3-one 1,1-dioxide]
≥ 6.00	≥ 6.00	O=C1CN(c2c(O)ccc(-c3cnn(Cc4ccc(C(F)(F)F)cc4)c3)c2F)S(=O)(=O)N1 [Compound 217, 5-(2-fluoro-6-hydroxy-3-(1-(4-(trifluoromethyl)benzyl)-1H-pyrazol-4-yl)phenyl)-1,2,5-thiadiazolidin-3-one 1,1-dioxide]
≥ 6.00	≥ 6.00	O=C1CN(c2c(O)ccc(C3=CC(=O)OC3)c2F)S(=O)(=O)N1 [Compound 513, 5-(2-fluoro-6-hydroxy-3-(5-oxo-2,5-dihydrofuran-3-yl)phenyl)-1,2,5-thiadiazolidin-3-one 1,1-dioxide]
≥ 6.00	≥ 6.00	O=C1CN(c2c(O)ccc(-c3cnn(Cc4cccc(F)c4)c3)c2F)S(=O)(=O)N1 [Compound 222, 5-(2-fluoro-3-(1-(3-fluorobenzyl)-1H-pyrazol-4-yl)-6-hydroxyphenyl)-1,2,5-thiadiazolidin-3-one 1,1-dioxide]
≥ 6.00	≥ 6.00	O=C1CN(c2c(O)ccc(C3=CC(CC4CC4)NC3)c2F)S(=O)(=O)N1 (stereo not drawn) [Compound 522, 5-(3-(5-(cyclopropylmethyl)-2,5-dihydro-1H-pyrrol-3-yl)-2-fluoro-6-hydroxyphenyl)-1,2,5-thiadiazolidin-3-one 1,1-dioxide]
≥ 6.00	≥ 6.00	O=C1CN(c2c(O)ccc(C3=CCCN(C4CC4)C3)c2F)S(=O)(=O)N1 [Compound 378, 5-(3-(1-cyclopropyl-1,2,5,6-tetrahydropyridin-3-yl)-2-fluoro-6-hydroxyphenyl)-1,2,5-thiadiazolidin-3-one 1,1-dioxide]
